What was measured:
BEL-7404 xenograft = settings: BEL-7404 model, 5-Fu 20.0 mg/kg per two days iv
Experimental: In vivo anticancer efficacy of chiral platinum(II) complex 6 was evaluated using BEL-7404 and BEL-7402 xenograft mouse models. BEL-7404 and BEL-7402 cells were injected into nude mice. The mice were randomized into the control group, complex 6-treated group, and the positive control group (n = 6/group). When the volume of tumor was about 80 mm^3, complex 6 was given at a high (8 mg/kg) and low (4 mg/kg) dosage daily for 18 days, 5-FU (20 mg/kg every two days) and Cisplatin (2 mg/kg every two days) were used as a positive control in the BEL-7404 and BEL-7402 xenograft model, respectively.
To evaluate the vivo anticancer efficacy of complex 6, BEL-7404 and BEL-7402 xenograft mouse models (BALB/c nude mice, female for BEL-7404 model, 17–20 g, 6–7 weeks old; male for BEL-7402 model, 18-21 g, 6–7 weeks old) were used. Furthermore, animal used, maximum tolerated dose (MTD) analysis, acute toxicity studies and antitumor activity toward BEL-7404 and BEL-7402 models in vivo of complex 6, was similar to Chen reported.
H21T (3.5 pmol; 5’-G [T AG ] -3’), primer TS (18 pmol; tumor tissue were cut into about 1.5 mm3 small pieces, and […]
5’-[…]-3’), KCl (63 mM), then transplanted into the right flank of nude mice. When EGTA (1 mM), MgCl (1.5 mM), Tween-20 (0.005%), the average tumors reach a volume of about 80 mm3, the […]
primer NT (7.5 pmol; 5’-[…]-3’), mice were randomized into 4 groups (n=6), received the […]
TSNT internal control (0.01 amol; 5’-[…] following treatments: (a) control, received saline solvent; […]
-3’), primer (b) complex 6 at doses of 8.0 mg/kg daily (dissolve in […]
Cxext (22.5 pmol; 5’-[…] saline, iv); (c) complex 6 at doses of 4.0 mg/kg daily; […]
[…]-3’), Taq DNA polymerase (2.5 U), and (d) in BEL-7404 model, 5-fluorouracil (5-Fu) as positive telomerase (100 ng). Complexes or/and distilled water control at 20 mg/kg per two days (dissolve in saline, iv); was added ([…]). PCR was performed in an Eppendorf in BEL-7402 model, cisplatin as positive control at 2 mg/ Master cycler equipped with a hot lid and incubated for kg per two days (dissolve in saline, iv).
30.0 min at 30 °C, followed by 92 °C 30 s, 52 °C 30 s, The tumor volumes and body weight was monitored and 72°C 30 s for 30.0 cycles. After amplification, 8.0 every 3 days, The tumor volumes were estimated by […] loading buffer (5×TBE buffer, 0.2% xylene cyanol, measuring the two dimensions of the tumors using caliper and 0.2% bromophenol blue ) were added to the reaction. and calculated by the formula 1 [1, 6, 14]:
An […] of aliquot was loaded onto a nondenaturing V = (length × width2)/2(1) acrylamide gel (19:1, 16%) in 1×TBE buffer and resolved at 200.0 V for 1.0 h. Gels were fixed and then stained with On day 18, the mice were sacrificed, and tumor AgNO3 [8–11]. tissue were dissected out and weighted, tumor growth inhibition rate calculated using formulas 2 and 3 [1, 6,
In order to verify whether complexes 4–6 can TGI (%) = (ΔVc − ΔVt)/ΔVc×100%(2) directly regulate c-myc promoter (Pu27) and the IR(%) = (Wc − Wt)/Wc×100%(3) expression of hTRET in BEL-7404 cells, consequently Where ΔVt = tumor volumefinal −tumor volumeinitial inhibiting the telomerase function, we constructed EGFP for compound treated group, ΔVc=tumor volumefinal − and c-myc gene vectors according to those illustrated tumor volumeinitial for vehicle control group; Wt and Wc in Chalfie, Chen and He previous work. The detailed mean the average tumor weight of complex-treated and procedures for the construct of gene (c-myc and EGFP vehicle controlled group respectively. genes) vectors, and the method of transfection assays REFERENCES have been reported by Chalfie, Chen and He [1, 6, 9, 12,

MGC80-3 cells = experiment: Cytotoxicity assay (MTT assay); type: cell-based, human; settings: MGC80-3, 100 μM
A549 cells = experiment: Cytotoxicity assay (MTT assay); type: cell-based, human; settings: A549, 100 μM
HeLa cells = experiment: Cytotoxicity assay (MTT assay); type: cell-based, human; settings: 100 μM
BEL-7402 cells = experiment: Cytotoxicity assay (MTT assay); type: cell-based, human; settings: BEL-7402, 100 μM
Hep-G2 cells = experiment: Cytotoxicity assay (MTT assay); type: cell-based, human; settings: Hep-G2, 100 μM
BEL-7404 cells = experiment: Cytotoxicity assay (MTT assay); type: cell-based, human; settings: BEL-7404, 100 μM

Structure (SMILES) | Tumor volume (start) (BEL-7404 xenograft) [mm3] | Average tumor weight (mean ± SD g) (BEL-7404 xenograft; day 18) [g] | Tumor volume (end) (BEL-7404 xenograft; day 18) [mm3] | Inhibitory rates (%) (MGC80-3 cells; 24 h) | Inhibitory rates (%) (MGC80-3 cells; 48 h) | Inhibitory rates (%) (A549 cells; 24 h) | Inhibitory rates (%) (A549 cells; 48 h) | Inhibitory rates (%) (HeLa cells; 24 h) | Inhibitory rates (%) (HeLa cells; 48 h) | Inhibitory rates (%) (BEL-7402 cells; 24 h) | Inhibitory rates (%) (BEL-7402 cells; 48 h) | Inhibitory rates (%) (Hep-G2 cells; 24 h) | Inhibitory rates (%) (Hep-G2 cells; 48 h) | Inhibitory rates (%) (BEL-7404 cells; 24 h) | Inhibitory rates (%) (BEL-7404 cells; 48 h)
O=c1[nH]cc(F)c(=O)[nH]1 [5-FU, 5-fluorouracil, reference compound] | 75.95±25.57 | 0.47 ± 0.20 | 576.17±297.34 | – | – | – | – | – | – | – | – | – | – | – | –
C[S](C)(=O)[Pt]([Cl])([Cl])[S](C)(C)=O [cis-Pt(DMSO)2Cl2] | – | – | – | 10.2 ± 1.3 | 30.4 ± 0.8 | 15.1 ± 1.7 | 22.3 ± 0.5 | 19.8 ± 0.7 | 25.4 ± 1.2 | 8.6 ± 2.4 | 12.3 ± 0.4 | 10.1 ± 0.4 | 13.8 ± 0.7 | 5.3 ± 1.5 | 8.0 ± 0.7

From PMC5617480 (Oncotarget, 2017)
